Measured values taken from paper PMC9731865, “Gambogic acid and juglone inhibit RNase P through distinct mechanisms” (The Journal of Biological Chemistry, 2022).
Values joined by “and” are separate entries in the source; they are usually repeats but may differ in a detail not shown here. Equal values may be shown once. Read-outs that look alike come from different tables or passages of the source.

Experiments:
PRORP1 = target: T1, PRORP1 (Arabidopsis thaliana, UniProt Q66GI4); experiment: Mode of inhibition of gambogic acid, PRORP1 activity at varying pre-tRNA and inhibitor; type: biochemical, A. thaliana
T1 construct: made in house
T1 sequence (Q66GI4 77-572): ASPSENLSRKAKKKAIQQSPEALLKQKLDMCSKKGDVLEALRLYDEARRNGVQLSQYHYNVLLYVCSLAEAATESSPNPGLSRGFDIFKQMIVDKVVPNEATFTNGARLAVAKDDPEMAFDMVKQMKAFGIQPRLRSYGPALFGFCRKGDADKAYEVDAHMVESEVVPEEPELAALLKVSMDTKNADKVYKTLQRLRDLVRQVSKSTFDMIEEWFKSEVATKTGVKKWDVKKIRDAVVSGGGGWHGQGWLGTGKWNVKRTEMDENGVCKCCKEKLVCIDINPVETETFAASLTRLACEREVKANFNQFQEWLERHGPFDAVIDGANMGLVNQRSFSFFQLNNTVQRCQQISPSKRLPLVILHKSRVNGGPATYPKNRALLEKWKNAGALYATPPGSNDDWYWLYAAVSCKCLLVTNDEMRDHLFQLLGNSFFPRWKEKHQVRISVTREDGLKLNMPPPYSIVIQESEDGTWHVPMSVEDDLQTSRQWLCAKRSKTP
Description: Equation 2 was fit to each data set to calculate the values of kcat,app, and KM,app, and (kcat/KM)app. […] The dotted line simulates the fit of Equation 3 with n = 1. C, kcat/KM,app values for PRORP1 activity vary little as a function of the gambogic acid concentration. Error bars indicate standard errors obtained from fitting the data.
To identify the mode of inhibition of gambogic acid, PRORP1 activity was measured with varying pre-tRNA and gambogic acid concentrations. The Michaelis–Menten equation (Equation 2) was fit to each curve individually to calculate the apparent turnover rate constant (kcat,app) and apparent substrate concentration at half maximal activity (KM,app). […] (3) kcat,app=kcat/1+([I]/KI)^n (4) KM,app=KM/1+([I]/KI)^n

B. subtilis RNase P = B. subtilis RNase P activity assay (FP, real-time); type: biochemical; details: ratio of IC50 values
Description: Figure 4 Gambogic acid and juglone inhibit A. thaliana PRORP1 (green), human MRPP1/2/3 (red), and B. subtilis RNase P (blue). Compounds gambogic acid (A) and juglone (B) were incubated with enzyme at double the reaction concentration for 30 min prior to the addition of an equal volume of substrate to initiate the reaction. PRORP1 reactions (shown in green) were performed with 0.3 nM PRORP1 and 800 nM pre-tRNA containing 40 nM Fl-pre-tRNA at 25 °C in 30 mM MOPS pH 7.8, 5 mM MgCl2, 100 mM NaCl, 1 mM TCEP, 500 nM (12 μg/ml) yeast tRNA, 5 mM spermidine, 6.65 μg/ml BSA, and 0.01% NP-40. MRPP1/2/3 reactions (shown in red) were performed using 50 nM MRPP3, 500 nM MRPP1/2, 500 nM pre-tRNA containing 40 nM Fl-pre-tRNA at 37 °C in 50 mM MOPS (pH 7.8), 1 mM TCEP, 4.5 mM MgCl2, and 100 mM NaCl. B. subtilis RNase P reactions (shown in blue) were performed using 20 nM RNase P and 500 nM pre-tRNA containing 40 nM Fl-pre-tRNA at 37 °C in 50 mM Tris, pH 7.2, 5 mM MgCl2, 100 mM KCl, 500 nM (12 μg/ml) yeast tRNA, 20 mM dithiothreitol (DTT), 10 mM spermidine, and 0.01% NP-40. Equation 1 was fit to each dataset.
The inhibition of B. subtilis RNase P activity by gambogic acid and juglone was measured using a previously developed FP assay in real-time.^25 Reactions were performed under multiple turnover conditions using 20 nM RNase P and 500 nM Fl-pre-tRNA^Asp in 50 mM Tris (pH 7.2), 5 mM MgCl2, 100 mM KCl, 500 nM (12 μg/ml) yeast tRNA^mix, 20 mM dithiothreitol, 10 mM spermidine, and 0.01% NP-40 at 37 °C.

CC(C)=CCC[C@]1(C)C=Cc2c(O)c3c(c(CC=C(C)C)c2O1)O[C@]12C(=C[C@@H]4C[C@H]1C(C)(C)O[C@@]2(C/C=C(/C)C(=O)O)C4=O)C3=O [gambogic acid] was tested, and the “Hill coefficient (n), fit of Equation 3” value (PRORP1; dependence of kcat,app on gambogic acid concentration) was 4 and 3.8 ± 0.8, the Ki (PRORP1; global fit, read-out: KI, global fit analysis (Equations 2, 3, 4)) was 1100 ± 30 nM and the “mode of inhibition of PRORP1” value (PRORP1; kcat,app decreases, (kcat/KM)app unchanged) was “uncompetitive inhibitor”. For the same compound, the Ki (PRORP1; uncompetitive model, gambogic acid 0-1.6 μM, read-out: inhibition constant (KI), fit of Equation 3 to kcat,app) was 1080 ± 50 nM, the “fold less potent against B. subtilis RNP RNase P than against PRORP1 and MRPP1/2/3” value (B. subtilis RNase P) was “at least 50 fold” and the “fold less potent against B. subtilis RNP RNase P than against PRORP1 and MRPP1/2/3” value (B. subtilis RNase P; listed as Gambogic acid) was “more than 50 fold”.
